Laboratory results published in US10034836B2, “Formulations of guanylate cyclase C agonists and methods of use” (SYNERGY PHARMACEUTICALS, INC., priority 2008, dated 2018).

What was measured:
BDF1 mice = assay: DSS-induced colitis in BDF-1 mice; type: in vivo; details: 5% DSS, 80 mg/kg oral gavage daily (positive control)
Procedure: The cGMP pathway mediates the anti-inflammatory effects of cellular molecules such as nitric oxide and heme oxygenase-1. […] The anti-inflammatory effects of the GCC agonist SP-304 were evaluated in a murine model of ulcerative colitis, the DSS-induced colitis model.
Forty eight BDF1 mice were divided into 8 treatment groups (6 mice/group). One group was not exposed to DSS (untreated control) and groups […] were treated with 5% DSS in the drinking water. DSS was refreshed daily. All mice were weighed on day −1, and treated with the test materials beginning on day −1. 4 hrs post dosing on Day 0, DSS was placed in the drinking water of groups 2-8 and DSS remained in the water until the end of the study. The test agents were administered at 9 AM daily until day 7. Animals were treated with a single dose of test agents and the groups were as follows:
All doses were administered by oral gavage using a 0.1 ml dose per 10 g body weight. To avoid cage-to-cage variation, different treatment groups were housed in the same cage and animals were ear punched for identification purposes. Mice were sacrificed on day 7, 4-6 hrs post last dosing. […] All slides were scored in a blinded manner.
Five different sections of the tissue were examined for histopathological scoring and the scores were averaged for each mouse. The histopathology scores in FIG. 17 are expressed as an average of 6 mice.

mice treated with TNBS = assay: Stool consistency in TNBS-induced murine model of colitis; type: in vivo; details: oral administration (FIG. 13)
From the text: The anal administration of trinitrobenzene sulphonic acid (TNBS) is typically used to produce intestinal blockage, resulting in poor stool consistency.

O=C(O)c1cc(/N=N/c2ccc(S(=O)(=O)Nc3ccccn3)cc2)ccc1O [Sulfasalazine]
severity of inflammation in large intestine (histopathology score) (BDF1 mice): considerably reduced
stool consistency in mice treated with TNBS (mice treated with TNBS): restored normal stool consistency
